The values below are quoted from earlier work in patent US12527745B2, “Pharmaceutical dosage form for an emulsion of simethicone and loperamide” (R.P. SCHERER TECHNOLOGIES, LLC, priority 2018, dated 2026).

For the data set the following is noted: single surfactant.

On to Polysorbate 80, for which the HLB is given as 15.
With sorbitan mono-oleate, the HLB is listed as 4.3.
